The values below come from patent US7745547B1, “Multi-arm cyclic or cubic siloxane-based formulations for drug delivery” (Becton, Dickinson and Company, priority 2005, dated 2010).

Series [1] can be described thus: Drug release time study of encapsulated cisplatin by UV-vis absorbance at 300 nm. The format is physicochemical. How it is done:
A drug release time study was performed on encapsulated cisplatin (i.e., cisplatin/delivery vehicle) to assess the time for complete release of the encapsulated drug from the delivery vehicle. UV-vis spectroscopy was used to monitor the change in absorbance in peaks associated with cisplatin over time.
5 mg of cisplatin was placed in a glass vial and 10 mL of water (10 mL) added. The vial was sonicated in a Bransonic Ultrasonic Cleaner (115 v, 50/60 HZ, […] transducer) for about 5 min to completely dissolve the cisplatin. 50 mg of the delivery vehicle (PEG400)4D4^M was placed in a separate vial and 10 mL of water added. Upon shaking, the polymer dissolved immediately. The cisplatin solution was added to the delivery vehicle solution drop-wise with sonication. After the mixing was complete, a UV-vis spectrum was recorded. The solution was further sonicated for 1 hr and monitored with UV-vis spectroscopy at intervals of 10 min to examine the encapsulation process. After 1 hr, sonication was stopped and incubation was allowed to continue at room temperature without shaking. UV-vis spectra were recorded at 20 min intervals for one hr, followed by 3 hours intervals for the next 24 hrs. After 24 hrs, UV-vis spectra were recorded at random intervals for several days to monitor the release time of the cisplatin. For reference, another solution of pure cisplatin was prepared at a similar concentration, and UV-vis spectra were recorded for the un-encapsulated cisplatin solution at similar intervals as with the encapsulated cisplatin solution. In about 200 hours ([…]), the absorbance of the encapsulated cisplatin solution dropped to the same level as that of the un-encapsulated cisplatin solution. This was viewed as the complete release of encapsulated cisplatin from the vehicle. All data provided in Table 4 were collected at a wavelength of 300 nm.

Series [2] in a line: Microscopy of dried drops: crystal formation as evidence of cisplatin encapsulation. Format: physicochemical. The settings on record: one drop on glass slide, room temperature, open air. The source says:
The cisplatin/delivery vehicle samples were also examined under a microscope to further investigate the encapsulation. Specifically, a comparison was made between encapsulated and un-encapsulated cisplatin.
The cisplatin/delivery vehicle samples were also examined under a microscope to further investigate the encapsulation. A comparison was made between encapsulated and un-encapsulated cisplatin.

The conditions of series [3]: one drop of ethanol solution dried on glass slide.
Source text: To verify the encapsulation, samples were examined under the microscope and a comparison was made between the paclitaxel solution alone and the paclitaxel/delivery vehicle solution. In particular, one drop of each solution was placed on a separate glass slide and the ethanol was allowed to evaporate at room temperature in the open-air. After complete evaporation of the ethanol, dry sample spots were covered and sealed by cover slides and both slides were examined under microscope.
For microscopic analysis, one drop of each solution (i.e., paclitaxel alone paclitaxel/delivery vehicle solutions) and was placed on a separate glass slide. The ethanol was allowed to evaporate at room temperature in the open-air. After complete evaporation of the ethanol, dry sample spots were covered and sealed by cover slides and both slides were examined under the microscope.

Turning to `N.N.[Cl][Pt][Cl]` [un-encapsulated cisplatin, cisplatin], the Absorbance in series [1] (time 0.00 hrs) was 0.18; in series [1] (time 0.17 hrs) it was 0.17; in series [1] (time 0.33 hrs), 0.16; in series [1] (time 0.50 hrs), 0.16; in series [1] (time 0.67 hrs), 0.16; in series [1] (time 0.83 hrs), 0.16. The Absorbance stood at 0.16 in series [1] (time 1.00 hrs); 0.16 in series [1] (time 1.33 hrs); 0.16 in series [1] (time 1.67 hrs); 0.16 in series [1] (time 2.00 hrs); 0.16 in series [1] (time 3.00 hrs); 0.15 in series [1] (time 21.00 hrs). In addition, the Absorbance in series [1] (time 24.00 hrs), in series [1] (time 42.00 hrs), in series [1] (time 45.00 hrs), in series [1] (time 72.00 hrs), in series [1] (time 88.00 hrs) and in series [1] (time 120.00 hrs) was 0.15 throughout. Also, the Absorbance in series [1] (time 174.00 hrs) and in series [1] (time […]) was 0.15 in each case. Besides, the “crystal formation as water evaporates (microscope)” value in series [2] is reported as “formed crystals”.

With `CC(=O)O[C@H]1C(=O)[C@@]2(C)[C@H]([C@H](OC(=O)c3ccccc3)[C@]3(O)C[C@H](OC(=O)[C@H](O)[C@@H](NC(=O)c4ccccc4)c4ccccc4)C(C)=C1C3(C)C)[C@]1(OC(C)=O)CO[C@@H]1C[C@@H]2O` [un-encapsulated paclitaxel, paclitaxel], in series [3], the “fluorescence when exposed to fluorescent light (microscope)” value is listed as “shows fluorescence activity”.
